According to patent US20080009418A1, “Selective Inhibitors” (Alchemia LTD., priority 2004, published 2008):

What was measured:
Details in all cases: compound at 10 μM
[1] = target: T1, Human neuropeptide Y (NPY-Y1) (Homo sapiens, UniProt P25929); assay: Radioligand binding, human neuropeptide Y NPY-Y1 membranes, FlashPlate, [125I]-PYY
T1 construct: purchased Perkin Elmer Biosignal
T1 sequence (P25929 1-384): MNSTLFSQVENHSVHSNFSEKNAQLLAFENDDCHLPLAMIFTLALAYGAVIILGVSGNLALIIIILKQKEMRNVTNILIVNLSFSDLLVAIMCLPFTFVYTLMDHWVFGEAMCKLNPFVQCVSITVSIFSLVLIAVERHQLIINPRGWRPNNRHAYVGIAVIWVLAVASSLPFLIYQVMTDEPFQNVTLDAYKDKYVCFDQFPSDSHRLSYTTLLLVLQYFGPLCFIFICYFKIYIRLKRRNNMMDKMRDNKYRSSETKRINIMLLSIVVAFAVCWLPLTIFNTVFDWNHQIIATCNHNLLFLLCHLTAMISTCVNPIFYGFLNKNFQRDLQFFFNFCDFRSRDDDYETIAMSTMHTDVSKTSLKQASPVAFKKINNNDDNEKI
Protocol: (§1) Cloned receptor membrane preparations from Perkin Elmer Biosignal™ were used in radioligand binding assays.
(§2) A1 Human δ-opioid (DOP), A2 Human κ-Opioid (KOP), A3 Human Melanocortin (MC3), A4 Human Melanocortin (MC4), A5 Human melanocortin (MC5), A6 Human melanin-concentrating hormone (MCH1), A7 Human μ-opioid (MOP), A8 Human neurokinin (NK1), A9 Human neuropeptide Y (NPY-Y1), A10 Human opioid (ORL1) A11 Mouse urotensin (mUR2)
(§3) Screening experiments were performed in either a 50 μl filtration or 25 μl FlashPlate assay format using the following protocol:
(§4) 19.5 μl buffer, 0.5 μl of compound diluted in DMSO, 5 μl of radioligand diluted in binding buffer.
(§5) The day prior to performing the experiment 50 μl DMSO was added to each well of the compound plates to yield compounds at a final concentration of 10 mM. Daughter plates were then created by diluting the compounds further in DMSO to a concentration of 0.5 mM. The mother plates were frozen immediately.
(§6) Immobilize membranes into FlashPlate microplates using PerkinElmer BioSignal's proprietary coating procedure. Dilute radioligand to 5× the final concentration in binding buffer. Add 19.5 μl buffer to each well of the FlashPlate. Add 0.5 μl of DMSO (total value, 5 wells), reference ligand (non-specific value, 3 wells) or compound to the corresponding wells in the FlashPlate microplate. Initiate the reaction by adding 5 μl of radioligand to each well. Apply TopSeal-A onto FlashPlate microplates. Incubate at room temperature for 1 hour in the dark. Count for 30 seconds per well on TopCount Microplate Scintillation and Luminescence Counter (PerkinElmer) using a count delay of 60 seconds.
(§7) Percentage inhibition was calculated using the following formula: [formula]

[2] = target: T2, Mouse urotensin (mUR2) (Mus musculus, UniProt Q8VIH9); assay: Radioligand binding, mouse urotensin mUR2 membranes, FlashPlate, [125I]-Urotensin II
T2 construct: purchased Perkin Elmer Biosignal
T2 sequence (Q8VIH9 1-385): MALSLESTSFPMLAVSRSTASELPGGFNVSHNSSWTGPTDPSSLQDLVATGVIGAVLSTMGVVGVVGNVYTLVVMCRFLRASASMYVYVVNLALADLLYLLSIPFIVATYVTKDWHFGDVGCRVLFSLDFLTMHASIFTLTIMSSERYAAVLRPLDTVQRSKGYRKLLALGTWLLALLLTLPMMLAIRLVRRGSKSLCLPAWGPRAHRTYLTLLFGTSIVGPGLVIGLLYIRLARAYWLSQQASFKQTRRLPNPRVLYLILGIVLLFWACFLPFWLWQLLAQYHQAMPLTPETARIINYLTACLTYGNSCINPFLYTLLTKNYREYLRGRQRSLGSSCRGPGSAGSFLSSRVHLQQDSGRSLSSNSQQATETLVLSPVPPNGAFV
Protocol: as §1, §2, §3, §4, §5, §6, §7

[3] = target: T3, Human μ-opioid (MOP) (Homo sapiens, UniProt P35372); assay: Radioligand binding, human μ-opioid (MOP) membranes, FlashPlate, [3H]-Naloxone
T3 construct: purchased Perkin Elmer Biosignal
T3 sequence (P35372 whole entry): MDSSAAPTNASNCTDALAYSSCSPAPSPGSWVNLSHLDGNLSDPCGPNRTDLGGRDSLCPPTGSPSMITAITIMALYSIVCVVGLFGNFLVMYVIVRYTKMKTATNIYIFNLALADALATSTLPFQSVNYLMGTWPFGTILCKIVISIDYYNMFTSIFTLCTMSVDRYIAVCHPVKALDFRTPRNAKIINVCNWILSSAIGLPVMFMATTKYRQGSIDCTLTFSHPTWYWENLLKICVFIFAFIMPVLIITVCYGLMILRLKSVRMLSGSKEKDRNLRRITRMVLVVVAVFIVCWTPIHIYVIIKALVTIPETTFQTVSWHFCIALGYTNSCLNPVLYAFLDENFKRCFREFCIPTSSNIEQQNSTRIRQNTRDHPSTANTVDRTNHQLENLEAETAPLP
Protocol: as §1, §2, §3, §4, §5, §6, §7

[4] = target: T4, Human κ-Opioid (KOP) (Homo sapiens, UniProt P41145); assay: Radioligand binding, human κ-opioid (KOP) membranes, filtration, [3H]-Diprenorphine
T4 construct: purchased Perkin Elmer Biosignal
T4 sequence (P41145 whole entry): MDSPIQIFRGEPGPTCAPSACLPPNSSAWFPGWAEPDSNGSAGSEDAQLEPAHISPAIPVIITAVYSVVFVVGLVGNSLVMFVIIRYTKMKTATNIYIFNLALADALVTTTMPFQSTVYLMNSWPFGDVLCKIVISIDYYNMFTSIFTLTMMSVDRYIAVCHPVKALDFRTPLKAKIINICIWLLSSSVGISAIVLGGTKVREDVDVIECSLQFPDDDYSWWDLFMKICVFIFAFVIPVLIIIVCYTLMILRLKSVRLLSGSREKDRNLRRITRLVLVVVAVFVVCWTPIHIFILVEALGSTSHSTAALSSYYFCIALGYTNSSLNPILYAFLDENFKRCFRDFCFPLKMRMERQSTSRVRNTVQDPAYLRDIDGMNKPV
Protocol: as §1, §2, §3
(§8) 44 μl membranes diluted in buffer, 1 μl of compound diluted in DMSO, 5 μl of radioligand diluted in binding buffer.
as §5
(§9) Thaw membranes on ice then dilute membranes in binding buffer at a concentration of 1 Unit per well. Dilute radio-ligand to 10 times the final concentration in binding buffer. Add 44 μl of diluted membranes to each well of the deep-well plate. Add 1 μl of DMSO (total value, 5 wells), reference ligand (non-specific value, 3 wells) or compound to the corresponding wells in the deep-well plate. Initiate the reaction by adding 5 μl of radioligand to each well and vortex gently. Incubate at room temperature for 1 hour. During incubation, pre-incubate the Multiscreen Harvest plates in 0.3% PEI. Filter over pre-soaked Multiscreen Harvest plates using a Tomtec Harvester. Wash 9 times with 500 μl of cold 50 mM Tris-HCl pH 7.4 at 4° C. and air-dry for 30 minutes at room temperature under a fume hood. Apply a bottom seal to the Multiscreen Harvest plates. Add 25 μl of MicroScint-0 to each well. Apply TopSeal-A to the plate. Count for 30 seconds per well on TopCount Microplate Scintillation and Luminescence Counter (PerkinElmer) using a count delay of 60 seconds.
as §7

[5] = target: T5, Human Melanocortin (MC4) (Homo sapiens, UniProt P32245); assay: Radioligand binding, human melanocortin MC4 membranes, FlashPlate, [125I]-NDP-αMSH
T5 construct: purchased Perkin Elmer Biosignal
T5 sequence (P32245 whole entry): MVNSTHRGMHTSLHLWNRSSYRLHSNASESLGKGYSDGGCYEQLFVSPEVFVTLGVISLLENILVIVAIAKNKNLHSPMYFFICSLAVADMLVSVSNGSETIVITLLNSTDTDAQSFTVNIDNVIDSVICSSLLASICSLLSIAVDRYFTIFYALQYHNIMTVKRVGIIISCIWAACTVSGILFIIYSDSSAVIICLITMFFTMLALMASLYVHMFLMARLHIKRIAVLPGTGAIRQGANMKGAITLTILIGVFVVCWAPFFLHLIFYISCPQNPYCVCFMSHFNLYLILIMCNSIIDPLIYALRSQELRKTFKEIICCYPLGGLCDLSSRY
Protocol: as §1, §2, §3, §4, §5, §6, §7

[6] = target: T6, Human melanin-concentrating hormone (MCH1) (Homo sapiens, UniProt Q99705); assay: Radioligand binding, human melanin-concentrating hormone MCH1 membranes, FlashPlate, [125I]-S36057
T6 construct: purchased Perkin Elmer Biosignal
T6 sequence (Q99705 whole entry): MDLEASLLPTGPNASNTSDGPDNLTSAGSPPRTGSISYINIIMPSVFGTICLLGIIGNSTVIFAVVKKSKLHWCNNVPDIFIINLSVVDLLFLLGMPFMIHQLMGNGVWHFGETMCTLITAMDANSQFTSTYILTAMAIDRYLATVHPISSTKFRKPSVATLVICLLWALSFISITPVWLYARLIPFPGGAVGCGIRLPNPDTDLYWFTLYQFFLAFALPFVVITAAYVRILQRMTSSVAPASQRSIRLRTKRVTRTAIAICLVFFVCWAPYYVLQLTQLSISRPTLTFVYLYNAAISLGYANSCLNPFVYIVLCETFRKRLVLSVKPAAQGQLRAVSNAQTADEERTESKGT
Protocol: as §1, §2, §3, §4, §5, §6, §7

[7] = target: T7, Human melanocortin (MC5) (Homo sapiens, UniProt P33032); assay: Radioligand binding, human melanocortin MC5 membranes, FlashPlate, [125I]-NDP-αMSH
T7 construct: purchased Perkin Elmer Biosignal
T7 sequence (P33032 whole entry): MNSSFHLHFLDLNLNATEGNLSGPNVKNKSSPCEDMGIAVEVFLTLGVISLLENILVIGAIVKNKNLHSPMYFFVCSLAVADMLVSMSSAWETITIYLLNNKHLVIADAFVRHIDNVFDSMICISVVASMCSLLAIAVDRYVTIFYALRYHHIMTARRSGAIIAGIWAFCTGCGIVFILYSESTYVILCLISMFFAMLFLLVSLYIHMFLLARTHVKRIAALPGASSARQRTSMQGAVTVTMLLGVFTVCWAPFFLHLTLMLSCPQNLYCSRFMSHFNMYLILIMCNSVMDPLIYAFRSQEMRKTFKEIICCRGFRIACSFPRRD
Protocol: as §1, §2, §3, §4, §5, §6, §7

[8] = target: T8, Human opioid (ORL1) (Homo sapiens, UniProt P41146); assay: Radioligand binding, human opioid ORL1 membranes, FlashPlate, [125I]-Nociceptin
T8 construct: purchased Perkin Elmer Biosignal
T8 sequence (P41146 whole entry): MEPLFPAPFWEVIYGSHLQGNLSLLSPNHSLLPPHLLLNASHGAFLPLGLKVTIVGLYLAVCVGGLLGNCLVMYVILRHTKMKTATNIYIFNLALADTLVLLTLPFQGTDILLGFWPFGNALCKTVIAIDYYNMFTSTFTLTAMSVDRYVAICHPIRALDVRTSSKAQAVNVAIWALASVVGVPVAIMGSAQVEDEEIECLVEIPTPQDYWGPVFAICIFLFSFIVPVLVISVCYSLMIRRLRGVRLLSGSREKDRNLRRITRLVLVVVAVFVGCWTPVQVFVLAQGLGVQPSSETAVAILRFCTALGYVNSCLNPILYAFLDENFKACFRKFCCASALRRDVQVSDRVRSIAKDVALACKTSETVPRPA
Protocol: as §1, §2, §3, §4, §5, §6, §7

[9] = target: T9, Human Melanocortin (MC3) (Homo sapiens, UniProt P41968); assay: Radioligand binding, human melanocortin MC3 membranes, FlashPlate, [125I]-NDP-αMSH
T9 construct: purchased Perkin Elmer Biosignal
T9 sequence (P41968 whole entry): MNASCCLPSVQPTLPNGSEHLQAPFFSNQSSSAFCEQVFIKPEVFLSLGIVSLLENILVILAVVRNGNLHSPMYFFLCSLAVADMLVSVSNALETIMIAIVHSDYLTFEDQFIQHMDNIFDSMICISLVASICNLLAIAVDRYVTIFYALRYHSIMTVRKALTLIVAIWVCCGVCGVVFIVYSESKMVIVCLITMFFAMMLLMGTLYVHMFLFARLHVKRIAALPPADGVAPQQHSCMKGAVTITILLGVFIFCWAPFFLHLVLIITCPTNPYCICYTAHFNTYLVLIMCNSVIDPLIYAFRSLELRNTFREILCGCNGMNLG
Protocol: as §1, §2, §3, §4, §5, §6, §7

[10] = target: T10, Human neurokinin (NK1) (Homo sapiens, UniProt P25103); assay: Radioligand binding, human neurokinin NK1 membranes, filtration, [125I]-Substance P
T10 construct: purchased Perkin Elmer Biosignal
T10 sequence (P25103 whole entry): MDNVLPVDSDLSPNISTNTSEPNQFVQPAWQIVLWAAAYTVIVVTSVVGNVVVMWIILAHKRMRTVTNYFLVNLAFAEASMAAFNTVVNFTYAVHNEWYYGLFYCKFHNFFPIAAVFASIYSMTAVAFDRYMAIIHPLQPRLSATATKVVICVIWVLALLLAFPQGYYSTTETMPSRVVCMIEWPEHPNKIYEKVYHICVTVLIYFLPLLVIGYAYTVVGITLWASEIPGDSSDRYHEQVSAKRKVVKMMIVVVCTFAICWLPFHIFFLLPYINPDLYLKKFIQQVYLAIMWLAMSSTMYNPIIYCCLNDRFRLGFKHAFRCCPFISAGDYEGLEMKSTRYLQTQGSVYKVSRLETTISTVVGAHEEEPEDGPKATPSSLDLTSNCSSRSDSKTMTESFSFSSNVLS
Protocol: as §1, §2, §3, §8, §5, §9, §7

[11] = target: T11, Human δ-opioid (DOP) (Homo sapiens, UniProt P41143); assay: Radioligand binding, human δ-opioid (DOP) membranes, FlashPlate, [3H]-Bremazocine
T11 construct: purchased Perkin Elmer Biosignal
T11 sequence (P41143 whole entry): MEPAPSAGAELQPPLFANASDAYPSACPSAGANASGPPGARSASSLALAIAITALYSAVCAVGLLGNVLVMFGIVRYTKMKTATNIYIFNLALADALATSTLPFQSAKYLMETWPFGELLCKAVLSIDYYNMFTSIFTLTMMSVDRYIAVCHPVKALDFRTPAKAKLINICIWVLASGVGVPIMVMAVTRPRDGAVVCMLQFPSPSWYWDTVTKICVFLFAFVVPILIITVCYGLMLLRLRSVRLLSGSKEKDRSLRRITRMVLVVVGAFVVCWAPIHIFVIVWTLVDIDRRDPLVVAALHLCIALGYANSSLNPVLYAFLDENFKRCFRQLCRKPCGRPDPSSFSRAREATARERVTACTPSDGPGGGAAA
Protocol: as §1, §2, §3, §4, §5, §6, §7

NCCC(=O)N[C@H]1C(OCc2ccc3ccccc3c2)O[C@H](COCc2ccc(Cl)cc2)[C@@H](O)[C@@H]1OCc1ccc2ccccc2c1 (some centres unmarked) [compound 447]
A9: inhibition of radioligand binding ([1]; [125I]-PYY, human NPY-Y1 membranes): − (“−” indicates less than 50% inhibition at 10 μM)
A11: inhibition of radioligand binding ([2]; [125I]-Urotensin II, mouse mUR2 membranes): − (“−” indicates less than 50% inhibition at 10 μM)
A7: inhibition of radioligand binding ([3]; [3H]-Naloxone, human MOP membranes): − (“−” indicates less than 50% inhibition at 10 μM)
A2: inhibition of radioligand binding ([4]; [3H]-Diprenorphine, human KOP membranes): − (“−” indicates less than 50% inhibition at 10 μM)
A4: inhibition of radioligand binding ([5]; [125I]-NDP-αMSH, human MC4 membranes, 10 µM): + (“+” indicates greater than 50% inhibition at 10 μM)
A6: inhibition of radioligand binding ([6]; [125I]-S36057, human MCH1 membranes, 10 µM): + (“+” indicates greater than 50% inhibition at 10 μM)
A5: inhibition of radioligand binding ([7]; [125I]-NDP-αMSH, human MC5 membranes): + (“+” indicates greater than 50% inhibition at 10 μM)
A10: inhibition of radioligand binding ([8]; [125I]-Nociceptin, human ORL1 membranes): − (“−” indicates less than 50% inhibition at 10 μM)
A3: inhibition of radioligand binding ([9]; [125I]-NDP-αMSH, human MC3 membranes, 10 µM): + (“+” indicates greater than 50% inhibition at 10 μM)
A8: inhibition of radioligand binding ([10]; [125I]-Substance P, human NK1 membranes): + (“+” indicates greater than 50% inhibition at 10 μM)
A1: inhibition of radioligand binding ([11]; [3H]-Bremazocine, human DOP membranes): − (“−” indicates less than 50% inhibition at 10 μM)

CSC1OC(COCc2ccccc2)C(O)C(OCc2ccc3ccccc3c2)C1NC(=O)CCCN (centres unmarked) [compound 304]
A9: inhibition of radioligand binding, human neuropeptide Y (NPY-Y1) ([1]; [125I]-PYY): − (“−” indicates less than 50% inhibition at 10 μM)
A11: inhibition of radioligand binding, mouse urotensin (mUR2) ([2]; [125I]-Urotensin II): − (“−” indicates less than 50% inhibition at 10 μM)
A7: inhibition of radioligand binding, human μ-opioid (MOP) ([3]; [3H]-Naloxone): − (“−” indicates less than 50% inhibition at 10 μM)
A2: inhibition of radioligand binding, human κ-opioid (KOP) ([4]; [3H]-Diprenorphine): − (“−” indicates less than 50% inhibition at 10 μM)
A4: inhibition of radioligand binding, human melanocortin (MC4) ([5]; [125I]-NDP-αMSH): − (“−” indicates less than 50% inhibition at 10 μM)
A6: inhibition of radioligand binding, human melanin-concentrating hormone (MCH1) ([6]; [125I]-S36057): − (“−” indicates less than 50% inhibition at 10 μM)
A5: inhibition of radioligand binding, human melanocortin (MC5) ([7]; [125I]-NDP-αMSH): − (“−” indicates less than 50% inhibition at 10 μM)
A10: inhibition of radioligand binding, human opioid (ORL1) ([8]; [125I]-Nociceptin): − (“−” indicates less than 50% inhibition at 10 μM)
A3: inhibition of radioligand binding, human melanocortin (MC3) ([9]; [125I]-NDP-αMSH): − (“−” indicates less than 50% inhibition at 10 μM)
A8: inhibition of radioligand binding, human neurokinin (NK1) ([10]; [125I]-Substance P): + (“+” indicates greater than 50% inhibition at 10 μM)
A1: inhibition of radioligand binding, human δ-opioid (DOP) ([11]; [3H]-Bremazocine): − (“−” indicates less than 50% inhibition at 10 μM)

CO[C@H]1[C@H](O)[C@@H](COCc2ccc(Cl)cc2)OC(OCc2ccc(-c3ccccc3)cc2)[C@@H]1NC(=O)CCCN (some centres unmarked) [compound 64]
A9 radioligand binding inhibition ([1]; human NPY-Y1 membranes): − (“−” indicates less than 50% inhibition at 10 μM)
A11 radioligand binding inhibition ([2]; mouse urotensin mUR2 membranes): − (“−” indicates less than 50% inhibition at 10 μM)
A7 radioligand binding inhibition ([3]; human μ-opioid (MOP) membranes): − (“−” indicates less than 50% inhibition at 10 μM)
A2 radioligand binding inhibition ([4]; human κ-opioid (KOP) membranes): − (“−” indicates less than 50% inhibition at 10 μM)
A4 radioligand binding inhibition ([5]; human melanocortin MC4 membranes): − (“−” indicates less than 50% inhibition at 10 μM)
A6 radioligand binding inhibition ([6]; human MCH1 membranes): − (“−” indicates less than 50% inhibition at 10 μM)
A5 radioligand binding inhibition ([7]; human melanocortin MC5 membranes): + (“+” indicates greater than 50% inhibition at 10 μM)
A10 radioligand binding inhibition ([8]; human ORL1 membranes): − (“−” indicates less than 50% inhibition at 10 μM)
A3 radioligand binding inhibition ([9]; human melanocortin MC3 membranes): + (“+” indicates greater than 50% inhibition at 10 μM)
A8 radioligand binding inhibition ([10]; human neurokinin NK1 membranes): + (“+” indicates greater than 50% inhibition at 10 μM)
A1 radioligand binding inhibition ([11]; human δ-opioid (DOP) membranes): − (“−” indicates less than 50% inhibition at 10 μM)

COCC1OC(OCc2ccc3ccccc3c2)C(NC(=O)CNC(=N)N)C(OCc2ccc(Cl)cc2)C1O (centres unmarked) [compound 236]
A9: inhibition of radioligand binding ([1]; [125I]-PYY, FlashPlate): − (“−” indicates less than 50% inhibition at 10 μM)
A11: inhibition of radioligand binding ([2]; [125I]-Urotensin II, FlashPlate): − (“−” indicates less than 50% inhibition at 10 μM)
A7: inhibition of radioligand binding ([3]; [3H]-Naloxone, FlashPlate): − (“−” indicates less than 50% inhibition at 10 μM)
A2: inhibition of radioligand binding ([4]; [3H]-Diprenorphine, filtration): − (“−” indicates less than 50% inhibition at 10 μM)
A4: inhibition of radioligand binding ([5]; [125I]-NDP-αMSH, FlashPlate): + (“+” indicates greater than 50% inhibition at 10 μM)
A6: inhibition of radioligand binding ([6]; [125I]-S36057, FlashPlate): + (“+” indicates greater than 50% inhibition at 10 μM)
A5: inhibition of radioligand binding ([7]; [125I]-NDP-αMSH, FlashPlate): + (“+” indicates greater than 50% inhibition at 10 μM)
A10: inhibition of radioligand binding ([8]; [125I]-Nociceptin, FlashPlate): − (“−” indicates less than 50% inhibition at 10 μM)
A3: inhibition of radioligand binding ([9]; [125I]-NDP-αMSH, FlashPlate): + (“+” indicates greater than 50% inhibition at 10 μM)
A8: inhibition of radioligand binding ([10]; [125I]-Substance P, filtration): + (“+” indicates greater than 50% inhibition at 10 μM)
A1: inhibition of radioligand binding ([11]; [3H]-Bremazocine, FlashPlate): − (“−” indicates less than 50% inhibition at 10 μM)
